Reference: paper PMC8446797 (The Journal of Biological Chemistry, 2021)
No end group written: not given here. 5Flu = C-terminal fluorescein

What was measured:
[1] = molecular target: T1, CRIP1a (Rattus norvegicus, UniProt Q5M7A7); experiment: Fluorescence polarization of fluorescein-labeled peptides binding to CRIP1a; conditions: 20 nM peptide, CRIP1a 0–250 μM, 30 min, room temperature, 25 mM Hepes pH 7.5, 100 mM NaCl, 5 mM MgCl2, 0.1 mM EDTA, 2 mM TCEP, 10% glycerol, λex 470 nm, λem 530 nm, biological quadruplicates, three separate days
T1 sequence (Q5M7A7 1-164): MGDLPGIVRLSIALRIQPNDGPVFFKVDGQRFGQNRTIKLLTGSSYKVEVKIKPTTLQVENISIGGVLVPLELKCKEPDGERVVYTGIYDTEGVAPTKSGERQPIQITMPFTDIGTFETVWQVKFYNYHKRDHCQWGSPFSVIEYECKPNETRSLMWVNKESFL

[2] = molecular target: N-terminally myristoylated 9-mer peptide mimicking the Gαi N terminus (Myr-…-5Flu); experiment: fluorescence polarisation

Row | binding to CRIP1a (in words) [1] | Kd [2] [µM] | Substance
1 | inability to bind |  | 5Flu-SQGKSSC(Farn)-OMe [Rheb-Farn peptide]
2 |  | 21.2 | Cannabinoid receptor interacting protein 1a (from UniProt Q5M7A7 1-164) (natural protein)
3 | unable to readily bind |  | Myr-GTASSLVSPK-5Flu [Myr-NHPH3 peptide]
4 | unable to readily bind |  | nonmyristoylated Gα peptide: corresponding nonmyristoylated peptide used as the control (GCTLSAEDK-5Flu)
